Activity, viability and IC50 data for 7 compounds are collected here from ChEMBL document CHEMBL3393053, “Synthesis and biological evaluation of isoindoloisoquinolinone, pyroloisoquinolinone and benzoquinazolinone derivatives as poly(ADP-ribose) polymerase-1 inhibitors” (Bioorg Med Chem, 2015).

A short description of data set [1]: Toxicity against chicken RBC assessed as effect on cell viability at 25 to 100 uM by acridine orange and ethidium bromide staining method. The following applies: erythrocyte. Type of data set: cell-based, Gallus gallus.
A short description of data set [2]: Cytoprotective activity against H2O2-induced cytotoxicity in chicken RBC assessed as cell viability pre-incubated at 100 uM followed by H2O2 addition by acridine orange and ethidium bromide staining method (reference value: 41 +/- 2.08%). The data set is classed as functional. The following applies: Gallus gallus, Erythrocyte; read-out: Activity.
A short description of data set [3]: Antioxidant activity against H2O2-induced oxidative stress in chicken RBC assessed as catalase activity by measuring H2O2 utilization per mg protein pre-incubated at 25 uM followed by H2O2 addition by UV spectroscopy (reference value: 15.97 +/- 2.12 nmol of H2O2 utilized/min/mg of protein). Type of data set: functional, Gallus gallus, Erythrocyte.
Data set [4] is described as follows: Antioxidant activity against H2O2-induced oxidative stress in chicken RBC assessed as catalase activity by measuring H2O2 utilization per mg protein pre-incubated at 50 uM followed by H2O2 addition by UV spectroscopy (reference value: 15.97 +/- 2.12 nmol of H2O2 utilized/min/mg of protein). The data set is classed as functional, Gallus gallus, Erythrocyte.
The nature of data set [5]: Antioxidant activity against H2O2-induced oxidative stress in chicken RBC assessed as catalase activity by measuring H2O2 utilization per mg protein pre-incubated at 75 uM followed by H2O2 addition by UV spectroscopy (reference value: 15.97 +/- 2.12 nmol of H2O2 utilized/min/mg of protein). Type of data set: functional, Gallus gallus, Erythrocyte.
Data set [6] is described as follows: Antioxidant activity against H2O2-induced oxidative stress in chicken RBC assessed as catalase activity by measuring H2O2 utilization per mg protein pre-incubated at 100 uM followed by H2O2 addition by UV spectroscopy (reference value: 15.97 +/- 2.12 nmol of H2O2 utilized/min/mg of protein). The data set is classed as functional, Gallus gallus, Erythrocyte.
Data set [7] is described as follows: Antioxidant activity against H2O2-induced oxidative stress in chicken RBC assessed as superoxide dismutase activity by measuring pyrogallol oxidization per mg protein pre-incubated at 25 uM followed by H2O2 addition by UV spectroscopy (reference value: 11.32 +/- 1.96 pyrogallol oxidized/min/mg of protein). The data set is classed as functional, Gallus gallus, Erythrocyte.

Data set [8] can be described thus: Antioxidant activity against H2O2-induced oxidative stress in chicken RBC assessed as superoxide dismutase activity by measuring pyrogallol oxidization per mg protein pre-incubated at 50 uM followed by H2O2 addition by UV spectroscopy (reference value: 11.32 +/- 1.96 pyrogallol oxidized/min/mg of protein). The data set is classed as functional, Gallus gallus, Erythrocyte.

Data set [9] is described as follows: Antioxidant activity against H2O2-induced oxidative stress in chicken RBC assessed as superoxide dismutase activity by measuring pyrogallol oxidization per mg protein pre-incubated at 75 uM followed by H2O2 addition by UV spectroscopy (reference value: 11.32 +/- 1.96 pyrogallol oxidized/min/mg of protein). Type of data set: functional, Gallus gallus, Erythrocyte.

Data set [10] in a line: Antioxidant activity against H2O2-induced oxidative stress in chicken RBC assessed as superoxide dismutase activity by measuring pyrogallol oxidization per mg protein pre-incubated at 100 uM followed by H2O2 addition by UV spectroscopy (reference value: 11.32 +/- 1.96 pyrogallol oxidized/min/mg of protein). The data set is classed as functional, Gallus gallus, Erythrocyte.

Data set [11] can be described thus: Antioxidant activity against H2O2-induced oxidative stress in chicken RBC assessed as lipid peroxidation level by measuring malondialdehyde formation per mg protein pre-incubated at 25 uM followed by H2O2 addition by UV spectroscopy (reference value: 84.32 +/- 12.04 nmol malondialdehyde formed/mg protein). Type of data set: functional, Gallus gallus, Erythrocyte.

The nature of data set [12]: Antioxidant activity against H2O2-induced oxidative stress in chicken RBC assessed as lipid peroxidation level by measuring malondialdehyde formation per mg protein pre-incubated at 50 uM followed by H2O2 addition by UV spectroscopy (reference value: 84.32 +/- 12.04 nmol malondialdehyde formed/mg protein). The data set is classed as functional, Gallus gallus, Erythrocyte.

Data set [13] in a line: Antioxidant activity against H2O2-induced oxidative stress in chicken RBC assessed as lipid peroxidation level by measuring malondialdehyde formation per mg protein pre-incubated at 75 uM followed by H2O2 addition by UV spectroscopy (reference value: 84.32 +/- 12.04 nmol malondialdehyde formed/mg protein). The data set is classed as functional, Gallus gallus, Erythrocyte.

The nature of data set [14]: Antioxidant activity against H2O2-induced oxidative stress in chicken RBC assessed as lipid peroxidation level by measuring malondialdehyde formation per mg protein pre-incubated at 100 uM followed by H2O2 addition by UV spectroscopy (reference value: 84.32 +/- 12.04 nmol malondialdehyde formed/mg protein). Type of data set: functional, Gallus gallus, Erythrocyte.
Data set [15] relates to Erythrocyte. The experiment in a line: Cytoprotective activity against H2O2-induced genomic DNA damage in chicken RBC assessed as DNA level in comet head region pre-incubated at 100 uM followed by H2O2 addition by single cell alkaline gel electrophoresis and fluorescent microscopy based comet assay (reference value: 52.23 +/- 3.98%). Type of data set: functional, Gallus gallus.

The test system of data set [16] is Erythrocyte. The data set can be described thus: Cytoprotective activity against H2O2-induced genomic DNA damage in chicken RBC assessed as DNA level in comet tail region pre-incubated at 100 uM followed by H2O2 addition by single cell alkaline gel electrophoresis and fluorescent microscopy based comet assay (reference value: 45.78 +/- 3.24%). The data set is classed as functional, Gallus gallus.

Data set [17] deals with Poly [ADP-ribose] polymerase 1 (Homo sapiens, UniProt P09874). The data set can be described thus: Inhibition of PARP1 (unknown origin) in presence of NAD+ by homogenous fluorescence plate assay.
Poly [ADP-ribose] polymerase 1, sequence (P09874 whole entry): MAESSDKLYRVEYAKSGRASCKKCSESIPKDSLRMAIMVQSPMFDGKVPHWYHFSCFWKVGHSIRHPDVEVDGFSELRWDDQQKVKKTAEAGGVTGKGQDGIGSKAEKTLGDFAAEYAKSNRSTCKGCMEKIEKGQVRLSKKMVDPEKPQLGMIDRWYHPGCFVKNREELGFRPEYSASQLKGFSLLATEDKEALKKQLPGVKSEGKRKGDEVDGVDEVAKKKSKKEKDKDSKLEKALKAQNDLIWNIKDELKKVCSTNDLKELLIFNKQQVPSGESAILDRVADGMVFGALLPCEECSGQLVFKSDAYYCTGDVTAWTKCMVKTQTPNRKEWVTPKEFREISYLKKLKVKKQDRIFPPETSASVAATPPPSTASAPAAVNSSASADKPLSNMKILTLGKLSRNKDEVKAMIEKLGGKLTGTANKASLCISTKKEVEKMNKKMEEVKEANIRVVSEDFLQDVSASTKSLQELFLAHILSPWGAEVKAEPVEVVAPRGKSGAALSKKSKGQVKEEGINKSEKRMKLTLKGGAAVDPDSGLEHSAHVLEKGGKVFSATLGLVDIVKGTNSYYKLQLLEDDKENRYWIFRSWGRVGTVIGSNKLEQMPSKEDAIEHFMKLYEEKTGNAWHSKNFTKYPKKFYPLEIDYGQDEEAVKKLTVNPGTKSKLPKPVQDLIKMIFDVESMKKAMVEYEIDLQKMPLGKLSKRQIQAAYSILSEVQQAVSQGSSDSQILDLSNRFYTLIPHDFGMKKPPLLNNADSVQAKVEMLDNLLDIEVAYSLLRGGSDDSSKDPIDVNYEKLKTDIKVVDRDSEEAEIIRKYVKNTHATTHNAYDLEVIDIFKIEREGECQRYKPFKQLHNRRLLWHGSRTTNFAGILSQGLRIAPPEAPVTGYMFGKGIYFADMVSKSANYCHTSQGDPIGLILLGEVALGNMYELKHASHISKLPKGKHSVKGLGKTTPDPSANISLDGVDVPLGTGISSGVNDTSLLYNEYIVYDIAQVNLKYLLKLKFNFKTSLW

With `COc1cc2c(cc1OC)C1(O)c3ccccc3C(=O)N1CC2` (configuration not stated), the Activity entry in data set [1] was “Non-toxic”; in data set [3], 26.54 nmol/min/mg; in data set [4] it was 43.65 nmol/min/mg; in data set [5] it was 48.43 nmol/min/mg; in [6], 64.87 nmol/min/mg protein; in data set [7], 17.34 µmol/min. Further, the Activity in [8] came out at 19.35 µmol/min; in data set [9], 23.98 µmol/min; in data set [10], 28.45 µmol/min; in data set [11], 38.46 nmol/mg protein; in [12] it was 29.27 nmol/mg protein; in [13], 16.54 nmol/mg protein. Moreover, the Activity in data set [14] is 18.32 nmol/mg protein; in [15] it was 65.56%; in data set [16], 34.44%. In data set [2], the viability at 100 µM turned out to be 79.3%.
For orientation: IC50 means the concentration that gives 50% inhibition. Take `O=C1NCCc2c(OCCCCN3CCCCC3)cccc21`: the IC50 in data set [17] was determined as 53.2 nM.
In the case of `Cc1ccc2c(c1)CCN1C(=O)c3ccccc3C21O` (configuration not stated), the Activity result in data set [1] was “Non-toxic”; in [3], 31.71 nmol/min/mg; in data set [4], 50.35 nmol/min/mg; in [5] it was 54.56 nmol/min/mg; in [6], 65.35 nmol/min/mg protein; in [7], 11.51 µmol/min. For the same compound, the Activity in data set [8] turned out to be 14.56 µmol/min; in [9], 15.08 µmol/min; in data set [10], 18.6 µmol/min; in data set [11], 53.66 nmol/mg protein; in data set [12] it was 43.76 nmol/mg protein; in data set [13], 26.52 nmol/mg protein. In addition, the Activity turned out to be 16.95 nmol/mg protein in data set [14], 87.56% in data set [15] and 11.44% in data set [16]. Besides, in data set [2], the viability at 100 µM was found to be 82.3%.
`COc1cc2c(cc1OC)C1(O)C3C4c5ccccc5C(c5ccccc54)C3C(=O)N1CC2` (configuration not stated): the Activity entry in data set [1] was “Non-toxic”; in [3], 46.11 nmol/min/mg; in [4] it was 55.89 nmol/min/mg; in [5] it was 65.12 nmol/min/mg; in data set [6], 67.91 nmol/min/mg protein; in data set [7], 15.86 µmol/min. For the same compound, the Activity in [8] was determined as 19.63 µmol/min; in data set [9], 23.58 µmol/min; in data set [10], 27.87 µmol/min; in data set [11], 51.48 nmol/mg protein; in [12], 35.6 nmol/mg protein; in [13], 24.44 nmol/mg protein. The Activity was 18.1 nmol/mg protein in data set [14], 82.45% in data set [15] and 16.55% in data set [16]. Also, in [2], the viability at 100 µM stood at 87.3%.
Consider `COc1cc2c(c(OC)c1)C1CCC(=O)N1CC2` (configuration not stated), for which the Activity entry is “Non-toxic” in data set [1]; 38.65 nmol/min/mg in data set [3]; 46.35 nmol/min/mg in data set [4]; 58.28 nmol/min/mg in [5]; 70.43 nmol/min/mg protein in [6]; 17.23 µmol/min in data set [7]. The Activity was found to be 19.43 µmol/min in data set [8]; 24.35 µmol/min in data set [9]; 29.34 µmol/min in [10]; 28.38 nmol/mg protein in data set [11]; 19.12 nmol/mg protein in [12]; 16.87 nmol/mg protein in data set [13]. Also, the Activity is reported as 16.14 nmol/mg protein in data set [14], 54.2% in [15] and 45.8% in data set [16]. Further, the viability at 100 µM in data set [2] stood at 68.3%.
For `COc1ccc(OC)c2c1CCN1C(=O)c3ccccc3C21O` (configuration not stated), the Activity result in [1] is “Non-toxic”; in data set [3] it was 23.65 nmol/min/mg; in data set [4], 31.76 nmol/min/mg; in data set [5], 47.53 nmol/min/mg; in data set [6] it was 68.46 nmol/min/mg protein; in data set [7], 16.32 µmol/min. The Activity in data set [8] was found to be 19.24 µmol/min; in data set [9], 23.76 µmol/min; in data set [10], 27.76 µmol/min; in [11] it was 36.23 nmol/mg protein; in data set [12], 28.21 nmol/mg protein; in data set [13], 14.24 nmol/mg protein. For the same compound, the Activity was determined as 20.14 nmol/mg protein in data set [14], 90.45% in data set [15] and 8.55% in data set [16]. Also, the viability at 100 µM in data set [2] was 72%.
For the compound `O=C1c2ccccc2C2(O)c3ccc(Br)cc3CCN12` (configuration not stated), the Activity result in data set [1] is “Non-toxic”; in [3], 36.597 nmol/min/mg; in [4], 51.14 nmol/min/mg; in data set [5], 56.05 nmol/min/mg; in data set [6], 65.007 nmol/min/mg protein; in data set [7], 12.8667 µmol/min. The Activity in [8] is 14.05 µmol/min; in data set [9], 17.51 µmol/min; in [10] it was 21.58 µmol/min; in data set [11], 70.74 nmol/mg protein; in [12], 54.24 nmol/mg protein; in data set [13], 34.52 nmol/mg protein. Also, the Activity is on record as 16.75 nmol/mg protein in data set [14], 94.32% in data set [15] and 4.55% in [16]. Further, the viability at 100 µM in [2] came out at 75.3%.
